Test results published in patent publication US20250066318A1, “HETEROCYCLIC COMPOUNDS AS DYRK1A INHIBITORS” (Prothena Biosciences Limited, priority 2021, published 2025).

target: DYRK1A (Homo sapiens (Human), UniProt Q13627); assay: DYRK1A Inhibition Assay; format: biochemical; settings: Selected Compounds of Formula (I); DYRK1A 1 nM, ATP 20 μM, Ser/Thr 18 peptide 2 μM, 90 minutes; read-out: DYRK1 IC50
Method: DYRK1A—Invitrogen #PV4105
Ser/Thr 18 peptide—Invitrogen #PR8227U Phos-Ser/Thr 18 peptide—Invitrogen #PR8229U Assay plate—PerkinElmer #6007279
Development reagent A—Invitrogen #PR5194B Development buffer—Invitrogen #PR4876B
1. Test compounds were diluted to 1 mM in DMSO 2. Stock was further diluted 3-fold using Echo platform 3. 100 nL of DMSO into Columns 1 and 24 and 100 nL of compounds dilutions to Columns 2-23 in a plate.
1. Add 5 μL enzyme & substrate mixture to each well in Column 2-23 and A24-H24 wells of the 384-well assay plate; 2. Add 5 μL 0% Phosphorylation control to A1-H1 and I24-P24 wells of the assay plate; 3. Add 5 μL 100% Phosphorylation control to I1-P1 wells of the assay plate; 4. Spin the assay plate (1000 rpm, 1 minute @23° C.); 5. Incubate enzyme with compounds for 15 minutes at 23° C.; 6. Add 5 μL ATP solution to each well of the assay plate; 7. Spin the plate (1000 rpm, 1 minute @23° C.); 8. Incubate the assay plate for 90 minutes at 23° C.; 9. Add 10 μL Development reagent A to each well of the assay plate; 10. Centrifuge the plate at 1000 rpm about 15 seconds and seal a film over assay plate. Incubate the assay plate for 30 minutes at 23° C. 11. Read assay plates on Envision (see Tables A, B, and C).
Final Compound Concentrations
Assay buffer: 50 mM Hepes pH7.5, 10 mM MgCl2, 1 mM EDTA, 0.01% Brij-35
Ser/Thr 18 peptide: 2 μM Reaction time: 90 minutes

| IC50 | Compound |
| --- | --- |
| 0.1 to 1 µM | O=C(O)C1CCN(Cc2cncc3ccc(-c4cnc(C#CC5CCOCC5)s4)cc23)CC1 [Compound 91] |
| > 1 µM | CC(C)(O)C#Cc1ncc(-c2ccc3cncc(CN4CCC(C(=O)O)CC4)c3c2)s1 [Compound 109] |
| ≤ 0.01 µM | CN1CC(OC(=O)Nc2cc3cc(-c4cnn(C)c4)ccc3cn2)C1 [Compound 84] |
| ≤ 0.01 µM | O=C(O)[C@H]1C[C@H](Nc2ncc(-c3ccc4cnccc4c3)s2)C1 [Compound 72] |
